Results from patent US12600724B2, “Indole alkaloid and preparation method and use thereof” (NANJING UNIVERSITY OF CHINESE MEDICINE, priority 2022, dated 2026).

system: primary DRG neuron; test: Axon growth of primary DRG neurons (immunofluorescence, Neuro J); type: cell-based, C57BL/6J mice; conditions: 10 μm, 24 hours
Procedure: Diabetic peripheral neuropathy involved a sensory neuron first, and a main pathological change was axonal atrophy and degeneration, or even disappearance. […] Therefore, the compounds in the examples were added with the primary DRG neuron to incubate for a certain period of time, then the axon growth of the DRG neuron was detected by immunofluorescence, and an axon length was quantified by Neuro J, so as to evaluate the promotion effect of the compound on the axon growth of the peripheral sensory neuron.
Primary antibodies of mice anti-β-tubulin III used for fluorescent staining were purchased from Sigma Company, cell culture reagents were all purchased from Gibco Company, and DRG neuronal cells were taken from C57BL/6J mice. Specific experimental steps were as follows: fresh DRG of the C57 mice was extracted to digest into a single-cell suspension and then inoculated into a culture plate for adherent culture overnight, with vinblastine as a positive drug, the to-be-detected compounds S1 to S87 ([…]) synthesized in the above examples were given to incubate for 24 hours, then an original culture medium was removed, 4% paraformaldehyde was added into each well to fix for 15 minutes after PBS washing, the mixture was permeabilized with 0.3% TritonX-100 for 5 minutes and sealed at room temperature with 4% BSA for 1 hour, a primary antibody (1:1000) was incubated at 4° C. overnight, a goat anti-mouse fluorescent secondary antibody (1:300) was incubated at room temperature in the dark for 1 hour, and a sealed slide was imaged by a fluorescence microscope (Leica). According to the image, a total axon length of a single DRG neuron was tracked by a Neuro J plug-in in Image J software, and a multiple of the total axon length relative to that of the blank control group was calculated.

Compound | Promotion of axon growth of the primary DRG neuron compared with the positive drug (in words)
CC[C@@]12C=C(C(=O)NCC(=O)OCCOCCOCCOCCOC)n3c4c(c5ccccc53)CCN(CCC1)[C@H]42 [Compound S3] | more outstanding effect
CC[C@@]12C=C(C(=O)NCC(=O)OCCOCCOCCOCCOCCO)n3c4c(c5ccccc53)CCN(CCC1)[C@H]42 [Compound S27] | more outstanding effect
CC[C@@]12C=C(C(=O)OCCCC(=O)OCCOCCOCCOCCOCCOCCO)n3c4c(c5ccccc53)CCN(CCC1)[C@H]42 [Compound S62] | more outstanding effect
CC[C@@]12C=C(C(=O)NCC(=O)O)n3c4c(c5ccccc53)CCN(CCC1)[C@H]42 [Compound S66] | more outstanding effect

same assay, conditions: Mus musculus, 24 hours, multiple of total axon length of a single DRG neuron relative to blank control group

Compound | fold induction at 10 µM
CC[C@@]12C=C(C(=O)NCC(=O)OCCOCCOC)n3c4c(c5ccccc53)CCN(CCC1)[C@H]42 [Compound S1] | 9.7
CC[C@@]12C=C(C(=O)NCC(=O)OCCOCCOCCOC)n3c4c(c5ccccc53)CCN(CCC1)[C@H]42 [Compound S2] | 9.5
CC[C@@]12C=C(C(=O)NCC(=O)OCCOCCOCCOCCOC)n3c4c(c5ccccc53)CCN(CCC1)[C@H]42 [Compound S3] | 13.2
CC[C@@]12C=C(C(=O)NCC(=O)OCCOCCOCCOCCOCCOC)n3c4c(c5ccccc53)CCN(CCC1)[C@H]42 [Compound S4] | 11.5
CC[C@@]12C=C(C(=O)N[C@@H](CC(C)C)C(=O)OCCOCCOCCOCCOC)n3c4c(c5ccccc53)CCN(CCC1)[C@H]42 [Compound S13] | 11.6
CC[C@@]12C=C(C(=O)N[C@@H](Cc3ccccc3)C(=O)OCCOCCOCCOCCOC)n3c4c(c5ccccc53)CCN(CCC1)[C@H]42 [Compound S14] | 10.5
CC[C@@]12C=C(C(=O)N[C@@H](CO)C(=O)OCCOCCOCCOCCOC)n3c4c(c5ccccc53)CCN(CCC1)[C@H]42 [Compound S15] | 11.3
CC[C@@]12C=C(C(=O)N[C@@H](CC(N)=O)C(=O)OCCOCCOCCOCCOC)n3c4c(c5ccccc53)CCN(CCC1)[C@H]42 [Compound S16] | 11.2
CC[C@@]12C=C(C(=O)NCC(=O)OCCO)n3c4c(c5ccccc53)CCN(CCC1)[C@H]42 [Compound S23] | 10.3
CC[C@@]12C=C(C(=O)NCC(=O)OCCOCCO)n3c4c(c5ccccc53)CCN(CCC1)[C@H]42 [Compound S24] | 11.7
CC[C@@]12C=C(C(=O)NCC(=O)OCCOCCOCCO)n3c4c(c5ccccc53)CCN(CCC1)[C@H]42 [Compound S25] | 12.3
CC[C@@]12C=C(C(=O)NCC(=O)OCCOCCOCCOCCOCCO)n3c4c(c5ccccc53)CCN(CCC1)[C@H]42 [Compound S27] | 12.9
CC[C@@]12C=C(C(=O)NCC(=O)OCCOCCOCCOCCOCCOCCO)n3c4c(c5ccccc53)CCN(CCC1)[C@H]42 [Compound S28] | 12.2
CC[C@@]12C=C(C(=O)N[C@@H](C)C(=O)OCCOCCOCCOCCO)n3c4c(c5ccccc53)CCN(CCC1)[C@H]42 [Compound S29] | 12.5
CC[C@@]12C=C(C(=O)N[C@H](C(=O)OCCOCCOCCOCCO)C(C)C)n3c4c(c5ccccc53)CCN(CCC1)[C@H]42 [Compound S30] | 12.6
CC[C@@]12C=C(C(=O)N[C@@H](CC(C)C)C(=O)OCCOCCOCCOCCO)n3c4c(c5ccccc53)CCN(CCC1)[C@H]42 [Compound S31] | 11.8
CCC(C)[C@H](NC(=O)C1=C[C@]2(CC)CCCN3CCc4c(n1c1ccccc41)[C@@H]32)C(=O)OCCOCCOCCOCCO (stereo partly shown) [Compound S32] | 12.3
CC[C@@]12C=C(C(=O)N[C@@H](Cc3ccccc3)C(=O)OCCOCCOCCOCCO)n3c4c(c5ccccc53)CCN(CCC1)[C@H]42 [Compound S33] | 10.9
CC[C@@]12C=C(C(=O)N[C@@H](CO)C(=O)OCCOCCOCCOCCO)n3c4c(c5ccccc53)CCN(CCC1)[C@H]42 [Compound S34] | 10.5
CC[C@@]12C=C(C(=O)N[C@H](C(=O)OCCOCCOCCOCCO)C(C)O)n3c4c(c5ccccc53)CCN(CCC1)[C@H]42 (stereo partly shown) [Compound S35] | 12.1
CC[C@@]12C=C(C(=O)N[C@@H](CCC(N)=O)C(=O)OCCOCCOCCOCCO)n3c4c(c5ccccc53)CCN(CCC1)[C@H]42 [Compound S36] | 11.7
CC[C@@]12C=C(C(=O)N[C@@H](Cc3cc4ccccc4[nH]3)C(=O)OCCOCCOCCOCCO)n3c4c(c5ccccc53)CCN(CCC1)[C@H]42 [Compound S37] | 10.8
CC[C@@]12C=C(C(=O)N[C@@H](CN)C(=O)OCCOCCOCCOCCO)n3c4c(c5ccccc53)CCN(CCC1)[C@H]42 [Compound S39] | 11.2
CC[C@@]12C=C(C(=O)N[C@@H](CCCCN)C(=O)OCCOCCOCCOCCO)n3c4c(c5ccccc53)CCN(CCC1)[C@H]42 [Compound S40] | 11.4
CC[C@@]12C=C(C(=O)N[C@@H](CC(N)=O)C(=O)OCCOCCOCCOCCO)n3c4c(c5ccccc53)CCN(CCC1)[C@H]42 [Compound S41] | 11
CC[C@@]12C=C(C(=O)N[C@@H](CC(=O)O)C(=O)OCCOCCOCCOCCO)n3c4c(c5ccccc53)CCN(CCC1)[C@H]42 [Compound S42] | 10.3

Compound | fold induction at 10 µM
CC[C@@]12C=C(C(=O)N[C@@H](CCC(=O)O)C(=O)OCCOCCOCCOCCO)n3c4c(c5ccccc53)CCN(CCC1)[C@H]42 [Compound S43] | 11.2
CC[C@@]12C=C(C(=O)N[C@@H](Cc3ccc(O)cc3)C(=O)OCCOCCOCCOCCO)n3c4c(c5ccccc53)CCN(CCC1)[C@H]42 [Compound S44] | 9.9
CC[C@@]12C=C(C(=O)N[C@@H](Cc3c[nH]cn3)C(=O)OCCOCCOCCOCCO)n3c4c(c5ccccc53)CCN(CCC1)[C@H]42 [Compound S45] | 10.5
CC[C@@]12C=C(C(=O)N[C@@H](CS)C(=O)OCCOCCOCCOCCO)n3c4c(c5ccccc53)CCN(CCC1)[C@H]42 [Compound S46] | 10.7
CC[C@@]12C=C(C(=O)NCC(=O)N[C@@H](C)C(=O)OCCOCCOCCO)n3c4c(c5ccccc53)CCN(CCC1)[C@H]42 [Compound S47] | 11.2
CC[C@@]12C=C(C(=O)NCC(=O)N[C@@H](CO)C(=O)OCCOCCOCCOCCO)n3c4c(c5ccccc53)CCN(CCC1)[C@H]42 [Compound S48] | 11.4
CC[C@@]12C=C(C(=O)NCC(=O)N[C@@H](CC(N)=O)C(=O)OCCOCCOCCOCCO)n3c4c(c5ccccc53)CCN(CCC1)[C@H]42 [Compound S49] | 12
CC[C@@]12C=C(C(=O)NCC(=O)N[C@@H](CC(=O)O)C(=O)OCCOCCOCCOCCO)n3c4c(c5ccccc53)CCN(CCC1)[C@H]42 [Compound S50] | 11.3
CC[C@@]12C=C(C(=O)NCC(=O)N[C@@H](CC(C)C)C(=O)OCCOCCOCCOCCO)n3c4c(c5ccccc53)CCN(CCC1)[C@H]42 [Compound S51] | 9.8
CC[C@@]12C=C(C(=O)NCC(=O)N[C@H](C(=O)OCCOCCOCCOCCO)C(C)O)n3c4c(c5ccccc53)CCN(CCC1)[C@H]42 (stereo partly shown) [Compound S52] | 9.5
CC[C@@]12C=C(C(=O)OCCC(=O)OCCO)n3c4c(c5ccccc53)CCN(CCC1)[C@H]42 [Compound S53] | 9.9
CC[C@@]12C=C(C(=O)OCCC(=O)OCCOCCO)n3c4c(c5ccccc53)CCN(CCC1)[C@H]42 [Compound S56] | 11.3
CC[C@@]12C=C(C(=O)OCCC(=O)OCCOCCOCCO)n3c4c(c5ccccc53)CCN(CCC1)[C@H]42 [Compound S57] | 10.8
CC[C@@]12C=C(C(=O)OCCC(=O)OCCOCCOCCOCCO)n3c4c(c5ccccc53)CCN(CCC1)[C@H]42 [Compound S58] | 11.4
CC[C@@]12C=C(C(=O)OCCC(=O)OCCOCCOCCOCCOCCO)n3c4c(c5ccccc53)CCN(CCC1)[C@H]42 [Compound S59] | 10.6
CC[C@@]12C=C(C(=O)OCCC(=O)OCCOCCOCCOCCOCCOCCO)n3c4c(c5ccccc53)CCN(CCC1)[C@H]42 [Compound S60] | 12
CC[C@@]12C=C(C(=O)OCCCC(=O)OCCOCCOCCOCCO)n3c4c(c5ccccc53)CCN(CCC1)[C@H]42 [Compound S61] | 11.3
CC[C@@]12C=C(C(=O)OCCCC(=O)OCCOCCOCCOCCOCCOCCO)n3c4c(c5ccccc53)CCN(CCC1)[C@H]42 [Compound S62] | 12.8
CC[C@@]12C=C(C(=O)N(C)CC(=O)OCCOCCOCCOCCO)n3c4c(c5ccccc53)CCN(CCC1)[C@H]42 [Compound S63] | 10.9
CC[C@@]12C=C(C(=O)N(CC(=O)OCCOCCOCCOCCO)C3CC3)n3c4c(c5ccccc53)CCN(CCC1)[C@H]42 [Compound S64] | 11.3
CC[C@@]12C=C(C(=O)NCCNC(=O)OCCOCCOCCOCCO)n3c4c(c5ccccc53)CCN(CCC1)[C@H]42 [Compound S65] | 11
CC[C@@]12C=C(C(=O)NCC(=O)O)n3c4c(c5ccccc53)CCN(CCC1)[C@H]42 [Compound S66] | 12.8
CC[C@@]12C=C(C(=O)N[C@@H](CC(C)C)C(=O)O)n3c4c(c5ccccc53)CCN(CCC1)[C@H]42 [Compound S67] | 11.3
CC[C@@]12C=C(C(=O)N[C@@H](CO)C(=O)O)n3c4c(c5ccccc53)CCN(CCC1)[C@H]42 [Compound S68] | 11
CC[C@@]12C=C(C(=O)N[C@H](C(=O)O)C(C)O)n3c4c(c5ccccc53)CCN(CCC1)[C@H]42 (stereo partly shown) [Compound S69] | 12.3
